Data from patent publication US12202816B2 (CALLIDITAS THERAPEUTICS SUISSE SA, priority 2018, dated 2025).

Molecular target: hNOX enzymes
Test: ROS production measurement on hNOX membranes (Amplex Red fluorescence assay, assay 1)
Type: biochemical, human
Conditions: membranes from CHO or HEK cells overexpressing hNox enzymes; Nox isoform not stated; non linear regression; read-out: Nox inhibitory constant Ki
Procedure: Reactive oxygen species (ROS) production generated by hNOX enzymes was measured by fluorescence in both cellular and membrane-based assays using the Amplex® Red reagent. In the presence of horseradish peroxidase (HRP), the Amplex® Red reagent (10-acetyl-3,7-dihydroxyphenoxazine, AR), which is a colorless and nonfluorescent derivative of dihydroresorufin, reacts with H2O2 with a 1:1 stoichiometry to produce highly fluorescent resorufin at an excitation and emission wavelengths of 544 nm and 590 nm, respectively.
Membranes from CHO or HEK cells overexpressing hNox enzymes were prepared as previously described (Palicz et al., 2001, J. Biol. Chem, 76, 3090). After resuspension in sonication buffer (11% sucrose, 120 mM NaCl, 1 mM EGTA in PBS, pH 7.4), cells were broken by sonication and centrifuged (200 g, 10 min). The supernatant was layered onto a 17/40% (w/v) discontinuous sucrose gradient and centrifuged (150,000 g for 30 min). Membrane fractions were collected from the 17/40% interface, aliquoted in 10 μl samples and were stored at −80° C. Protein concentration was determined with Bradford reagent. Flavin Adenine Dinucleotide (FAD) (catalog #F6625-500MG), MgCl2 (catalog #M8266-100G), Phosphatidic Acid (PA) (catalog #P3591-50MG) were purchased from Sigma-Aldrich. Horseradish peroxidase (HRP) (catalog #10108090001) was purchased from Roche. NADPH (catalog #A1395, 0500) was purchased from Applichem. Amplex red (AR) (catalog #A22177) was purchased from Invitrogen. 96 well polypropylene and black plates were purchased from Milian (catalog #055529 and #055218, respectively). FLUOstar OPTIMA microplate reader was supplied by BMG Labtech (Germany). Zephyr® Compact Liquid Handling Workstation was supplied by PerkinElmer (Germany).
Assay 1: ROS Production Measurement on hNOX Membranes
All Solutions were placed on ice and protected from light. The final concentration in the 1× hNOX membrane fluorescent assay buffer were PBS pH7, 6 μM FAD, 15 μM PA, 1 mM MgCl2, 12.5 μM AR, 0.02 u/ml, 125 ng membranes, 1.5 μg of cofactors and 30 μM NADPH. The NADPH was dissolved in water at a concentration of 12 mM and was transferred in a metal transfer plate kept at 4° C. The NADPH was added to the assay plate to initiate the reaction just before the measurement.
Serial dilution (1:3, 10 serial dilution) of the compounds was performed in 100% DMSO in 96 well polypropylene plate—Row B—H Column 1-10, Row A, Column 1-10 contained reference compound. Starting concentration was 10^−2 M (10 mM). Final concentration in assay was 10^−4 M (100 μM). Compounds were diluted twice in PBS buffer by transferring 30 μl/well of PBS into 30 μl/well compounds sample in DMSO using Zephyr® Compact Liquid Handling Workstation. Control wells-columns 1 and 12-contained 60 μl DMSO in 50% PBS pH7.
Reaction mixture is dispensed using Zephyr® Compact Liquid Handling Workstation. 90 μl of mix with membrane were dispensed into 96 well black plates—Column 2-11, Column 1 Row A-D, Column 12 Row E-H. 90 μl of control mix were dispensed into assay plate—Column 1 Row E-H, Column 12 Row A-D, which are wells for measuring background signal. 2 μl of compounds were dispensed into each well of assay plate using Zephyr® Compact Liquid Handling Workstation. The reaction mixture with compounds was incubated in assay plates for 20 min at 37° C. in a Titramax microplate incubator with gentle agitation. 10 μl of NADPH is dispensed to the assay plate. Fluorescence reading was recorded with the FLUOstar OPTIMA microplate reader for 10 min at 37° C. (8 cycles, 1 cycle duration 55 sec).
The Table 14 below summarizes the inhibition of NOX activity as measured by the above described assay 1 and expressed by their inhibitory constant calculated by non linear regression analysis using GraphPad Prism Software (GraphPad Software Co., San Diego, CA): […]

SMILES	Ki
COc1cc(-c2ccc3[nH]c(-c4ccnc(C)c4)cc3c2)ccn1 [Example 1, 5-(2-methoxypyridin-4-yl)-2-(2-methylpyridin-4-yl)-1H-indole]	486 nM
Cc1cc(-c2cc3cc(-c4ccnc(N)c4)ccc3[nH]2)ccn1 [Example 5, 4-(2-(2-methylpyridin-4-yl)-1H-indol-5-yl)pyridin-2-amine]	348 nM
Cc1cc(-c2cc3cc(-c4cncc(F)c4)ccc3[nH]2)ccn1 [Example 6, 5-(5-fluoropyridin-3-yl)-2-(2-methylpyridin-4-yl)-1H-indole]	750 nM
Cc1cc(-c2cc3cc(-c4cncc(N(C)C)c4)ccc3[nH]2)ccn1 [Example 9, N,N-dimethyl-5-(2-(2-methylpyridin-4-yl)-1H-indol-5-yl)pyridin-3-amine]	805 nM
Cc1cc(-c2cc3cc(-c4ccc5[nH]c(C)nc5c4)ccc3[nH]2)ccn1 [Example 12, 2-methyl-5-(2-(2-methylpyridin-4-yl)-1H-indol-5-yl)-1H-benzo[d]imidazole]	590 nM
COc1cncc(-c2ccc3[nH]c(-c4ccnc(N5CCC5)c4)cc3c2)c1 [Example 13, 2-(2-(azetidin-1-yl)pyridin-4-yl)-5-(5-methoxypyridin-3-yl)-1H-indole]	315 nM
COc1cncc(-c2ccc3[nH]c(-c4ccnc(OC)c4)cc3c2)c1 [Example 14, 5-(5-methoxypyridin-3-yl)-2-(2-methoxypyridin-4-yl)-1H-indole]	41 nM
COc1cncc(-c2ccc3[nH]c(-c4ccnc(C)n4)cc3c2)c1 [Example 16, 5-(5-methoxypyridin-3-yl)-2-(2-methylpyrimidin-4-yl)-1H-indole]	666 nM
COc1cncc(-c2ccc3[nH]c(-c4csc(C)n4)cc3c2)c1 [Example 18, 4-(5-(5-methoxypyridin-3-yl)-1H-indol-2-yl)-2-methylthiazole]	958 nM
COc1cncc(-c2ccc3[nH]c(-c4ccnc(C5CC5)c4)cc3c2)c1 [Example 19, 2-(2-cyclopropylpyridin-4-yl)-5-(5-methoxypyridin-3-yl)-1H-indole]	231 nM
COc1cncc(-c2ccc3[nH]c(-c4ccnc(N5CC(O)C5)c4)cc3c2)c1 [Example 20, 1-(4-(5-(5-methoxypyridin-3-yl)-1H-indol-2-yl)pyridin-2-yl)azetidin-3-ol]	158 nM
COc1cncc(-c2ccc3[nH]c(-c4ccnc(N5CCOCC5)c4)cc3c2)c1 [Example 23]	296 nM
COc1cncc(-c2ccc3[nH]c(-c4cncc(F)c4)cc3c2)c1 [Example 24, 2-(5-fluoropyridin-3-yl)-5-(5-methoxypyridin-3-yl)-1H-indole]	311 nM
Cc1cc(-c2ccc3[nH]c(-c4ccc(N5CCOCC5)nc4)cc3c2)ccn1 [Example 26]	221 nM
COc1cncc(-c2ccc3[nH]c(-c4ccc(C5COC5)nc4)cc3c2)c1 [Example 27, 5-(5-methoxypyridin-3-yl)-2-(6-(oxetan-3-yl)pyridin-3-yl)-1H-indole]	147 nM
Cc1cc(-c2ccc3[nH]c(-c4ccc(N(C)C)nc4)cc3c2)ccn1 [Example 29, N,N-dimethyl-5-(5-(2-methylpyridin-4-yl)-1H-indol-2-yl)pyridin-2-amine]	206 nM
COc1cncc(-c2cc3cc(-c4ccc(N5CCC56COC6)nc4)[nH]c3cc2Cl)c1 [Example 32, 1-(5-(6-chloro-5-(5-methoxypyridin-3-yl)-1H-indol-2-yl)pyridin-2-yl)-6-oxa-1-azaspiro[3.3]heptane]	27 nM
COc1cncc(-c2cc3cc(-c4ccnc(N5CCC56COC6)c4)[nH]c3cc2Cl)c1 [Example 33, 1-(4-(6-chloro-5-(5-methoxypyridin-3-yl)-1H-indol-2-yl)pyridin-2-yl)-6-oxa-1-azaspiro[3.3]heptane]	36 nM

Second part, the compound after the results:

Ki	SMILES
94 nM	Cc1cc(-c2cc3cc(-c4ccnc(N5CCC56COC6)c4)[nH]c3cc2Cl)ccn1 [Example 34, 1-(4-(6-chloro-5-(2-methylpyridin-4-yl)-1H-indol-2-yl)pyridin-2-yl)-6-oxa-1-azaspiro[3.3]heptane]
345 nM	COc1cncc(-c2cc3cc(-c4ccc(N5CC(C(=O)O)C5)nc4)[nH]c3cc2Cl)c1 [Example 39, 1-(5-(6-chloro-5-(5-methoxypyridin-3-yl)-1H-indol-2-yl)pyridin-2-yl)azetidine-3-carboxylic acid]
105 nM	COc1cncc(-c2cc3cc(-c4ccc(N5CCS(=O)(=O)CC5)nc4)[nH]c3cc2Cl)c1 [Example 49, 4-(5-(6-chloro-5-(5-methoxypyridin-3-yl)-1H-indol-2-yl)pyridin-2-yl)thiomorpholine 1,1-dioxide]
23 nM	COc1cncc(-c2cc3cc(-c4cnc5c(c4)OCCN5C)[nH]c3cc2Cl)c1 [Example 53, 7-(6-chloro-5-(5-methoxypyridin-3-yl)-1H-indol-2-yl)-4-methyl-3,4-dihydro-2H-pyrido[3,2-b][1,4]oxazine]
415 nM	COc1cncc(-c2cc3cc(-c4ccc(C(O)C5COC5)nc4)[nH]c3cc2Cl)c1 (stereo not shown) [Example 54, (5-(6-chloro-5-(5-methoxypyridin-3-yl)-1H-indol-2-yl)pyridin-2-yl)(oxetan-3-yl)methanol]
142 nM	COc1cncc(-c2cc3cc(-c4ccc(=O)n(C)c4)[nH]c3cc2Cl)c1 [Example 57, 5-(6-chloro-5-(5-methoxypyridin-3-yl)-1H-indol-2-yl)-1-methylpyridin-2(1H)-one]
552 nM	COc1cncc(-c2cc(Cl)c3[nH]c(-c4ccc(N5CCOCC5)nc4)cc3c2)c1 [Example 59]
136 nM	Clc1cncc(-c2cc3cc(-c4ccc(N5CCOCC5)nc4)[nH]c3cc2Cl)c1 [Example 62]
122 nM	COc1cncc(-c2ccc3[nH]c(-c4ccnc(C)c4)cc3c2Cl)c1 [Example 65]
406 nM	COc1cncc(-c2cc3cc(-c4ccnc(C)c4)[nH]c3cc2C)c1 [Example 68]
601 nM	Cc1c(-c2ccncc2)ccc2[nH]c(-c3ccncc3)cc12 [Example 69]
289 nM	Cc1cc(-c2cc3cc(-c4cncc(OCC5CC5)c4)ccc3[nH]2)ccn1 [Example 81]
657 nM	COc1cc(-c2ccc3[nH]c(-c4ccnc(C)c4)cc3c2)cnc1OCc1ccccc1 [Example 83]
103 nM	Clc1cc2[nH]c(-c3ccc(N4CCOCC4)nc3)cc2cc1-c1cncc2sccc12 [Example 89]
205 nM	Fc1ccc2nccc(-c3cc4cc(-c5ccc(N6CCOCC6)nc5)[nH]c4cc3Cl)c2c1 [Example 90]
770 nM	COc1ccc2c(-c3cc4cc(-c5ccc(N6CCOCC6)nc5)[nH]c4cc3Cl)cccc2n1 [Example 92]
26 nM	CN(C)c1cc(-c2cc3cc(-c4ccnc5ccc(F)cc45)ccc3[nH]2)ccn1 [Example 93, 4-(5-(6-fluoroquinolin-4-yl)-1H-indol-2-yl)-N,N-dimethylpyridin-2-amine]
300 nM	c1ccc2c(-c3ccc4[nH]c(-c5ccncc5)cc4c3)ccnc2c1 [Example 101]
806 nM	COc1cncc(-c2ccc3[nH]c(-c4ccncn4)cc3c2)c1 [Example 109]
533 nM	COc1cncc(-c2ccc3c(c2)cc(-c2ccnc(C)c2)n3C(C)C)c1 [Example 111, 1-isopropyl-5-(5-methoxypyridin-3-yl)-2-(2-methylpyridin-4-yl)-1H-indole]
170 nM	COc1cncc(-c2cc3cc(-c4ccc(N5CCOCC5)nc4)n(C)c3cc2Cl)c1 [Example 112]
969 nM	COCCn1c(-c2ccncc2)cc2cc(-c3ccncc3)ccc21 [Example 113, 1-(2-methoxyethyl)-2,5-di(pyridin-4-yl)-1H-indole]
